Source: patent US20260285850A1, “SUBSTITUTED OXAZOLIDINONES AND IMIDAZOLINONES AS HERBICIDES” (FMC CORPORATION, priority 2023, published 2026)

Key:
Format in all cases: in vivo
[1] = system: barnyardgrass (Echinochloa crus-galli); assay: Test A preemergence soil spray, visual injury rating 0-100; conditions: 10 days
Method in brief: (§1)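 Preemergence directed soil spray or postemergence spray (2-10 cm, 1-2 leaf); loam/sand mix; compound in non-phytotoxic solvent + surfactant. Greenhouse, 10 d. Visual injury vs untreated, 0 = none, 100 = complete control.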

[2] = system: blackgrass (Alopecurus myosuroides); assay: as above; conditions: 10 days
Method in brief: as §1

corn (Zea mays) [3] = assay: as above; conditions: 10 days
Method in brief: as §1

[4] = system: green foxtail (Setaria viridis); assay: as above; conditions: 10 days
Method in brief: as §1

kochia (Bassia scoparia) [5] = assay: as above; conditions: 10 days
Method in brief: as §1

[6] = system: oat, wild (wild oat, Avena fatua); assay: as above; conditions: 10 days
Method in brief: as §1

[7] = system: palmer (palmer amaranth, palmer pigweed, Amaranthus palmeri); assay: as above; conditions: 10 days
Method in brief: as §1

[8] = system: ragweed (common ragweed, Ambrosia artemisiifolia); assay: as above; conditions: 10 days
Method in brief: as §1

[9] = system: ryegrass, Italian (italian ryegrass, Lolium multiflorum); assay: as above; conditions: 10 days
Method in brief: as §1

soybean (Glycine max) [10] = assay: as above; conditions: 10 days
Method in brief: as §1

[11] = system: wheat (Triticum aestivum); assay: as above; conditions: 10 days
Method in brief: as §1

[12] = system: barnyardgrass (Echinochloa crus-galli); assay: Test A postemergence application, visual injury rating 0-100
Method in brief: as §1

[13] = system: blackgrass (Alopecurus myosuroides); assay: as above
Method in brief: as §1

corn (Zea mays) [14] = assay: as above
Method in brief: as §1

[15] = system: galium (catchweed bedstraw, Galium aparine); assay: as above
Method in brief: as §1

[16] = system: green foxtail (Setaria viridis); assay: as above
Method in brief: as §1

[17] = system: horseweed (Erigeron canadensis); assay: as above
Method in brief: as §1

kochia (Bassia scoparia) [18] = assay: as above
Method in brief: as §1

[19] = system: oat, wild (wild oat, Avena fatua); assay: as above
Method in brief: as §1

[20] = system: palmer (palmer amaranth, palmer pigweed, Amaranthus palmeri); assay: as above
Method in brief: as §1

[21] = system: ragweed (common ragweed, Ambrosia artemisiifolia); assay: as above
Method in brief: as §1

[22] = system: ryegrass, Italian (italian ryegrass, Lolium multiflorum); assay: as above
Method in brief: as §1

soybean (Glycine max) [23] = assay: as above
Method in brief: as §1

[24] = system: wheat (Triticum aestivum); assay: as above
Method in brief: as §1

[25] = system: barnyardgrass (Echinochloa crusgalli); assay: Test B flooded paddy test, visual plant response rating 0-100; conditions: 250 g ai/ha, Flood, applied to paddy water, evaluated after 13 days
Method in brief: (§2)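 Visual evaluation after 13 days. Water-applied treatment, 3 cm flood depth held constant, plants at 2-leaf stage at treatment.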

[26] = system: ducksalad (Heteranthera limosa); assay: as above; conditions: 250 g ai/ha, Flood, applied to paddy water, evaluated after 13 days
Method in brief: as §2

rice (Oryza sativa) = assay: as above; conditions: 250 g ai/ha, Flood, applied to paddy water, evaluated after 13 days
Method in brief: as §2

[27] = system: sedge, umbrella (small-flower umbrella sedge, Cyperus difformis); assay: as above; conditions: 250 g ai/ha, Flood, applied to paddy water, evaluated after 13 days
Method in brief: as §2

[28] = 62 g ai/ha, 0 = no effect, 100 = complete control
[29] = 62 g ai/ha, postemergence, 10 days, 0 = no effect, 100 = complete control
[30] = Postemergence, 16 g ai/ha, greenhouse 10 days, 0 no effect, 100 complete control

CC1(C(=O)NC2CC=C(C(=O)NS(=O)(=O)C(C)(C)C)C2)CN(c2cc(F)cc(F)c2)C(=O)O1 (racemic) [Compound 91]
Barnyardgrass plant response rating ([1]; 16 g ai/ha, 0 to 100 scale): 0 | Barnyardgrass plant response rating (0-100) [1, 28]: 10 | Blackgrass plant response rating ([2]; 16 g ai/ha, 0 to 100 scale): 0 | Blackgrass plant response rating (0-100) [2, 28]: 0 | Corn plant response rating (corn (Zea mays) [3]; 16 g ai/ha, 0 to 100 scale): 0 | Corn plant response rating (0-100) (corn (Zea mays) [3]; [28]): 0 | Foxtail, Green plant response rating ([4]; 16 g ai/ha, 0 to 100 scale): 0 | Foxtail, Green plant response rating (0-100) [4, 28]: 0 | Kochia plant response rating (kochia (Bassia scoparia) [5]; 16 g ai/ha, 0 to 100 scale): 0 | Kochia plant response rating (0-100) (kochia (Bassia scoparia) [5]; [28]): 0 | Oat, Wild plant response rating ([6]; 16 g ai/ha, 0 to 100 scale): 0 | Oat, Wild plant response rating (0-100) [6, 28]: 0 | Pigweed, Palmer plant response rating ([7]; 16 g ai/ha, 0 to 100 scale): 0 | Pigweed, Palmer plant response rating (0-100) [7, 28]: 0 | Ragweed plant response rating ([8]; 16 g ai/ha, 0 to 100 scale): 0 | Ragweed plant response rating (0-100) [8, 28]: 0 | Ryegrass, Italian plant response rating ([9]; 16 g ai/ha, 0 to 100 scale): 0 | Ryegrass, Italian plant response rating (0-100) [9, 28]: 0 | Soybean plant response rating (soybean (Glycine max) [10]; 16 g ai/ha, 0 to 100 scale): 0 | Soybean plant response rating (0-100) (soybean (Glycine max) [10]; [28]): 0 | Wheat plant response rating ([11]; 16 g ai/ha, 0 to 100 scale): 0 | Wheat plant response rating (0-100) [11, 28]: 0 | Barnyardgrass plant response rating (0-100) [12, 29]: 40 | Barnyardgrass plant response rating (0 to 100 scale) [12, 30]: 0 | Blackgrass plant response rating (0-100) [13, 29]: 10 | Blackgrass plant response rating (0 to 100 scale) [13, 30]: 0 | Corn plant response rating (0-100) (corn (Zea mays) [14]; [29]): 30 | Corn plant response rating (0 to 100 scale) (corn (Zea mays) [14]; [30]): 0 | Galium plant response rating (0-100) [15, 29]: 10 | Galium plant response rating (0 to 100 scale) [15, 30]: 0 | Foxtail, Green plant response rating (0-100) [16, 29]: 20 | Foxtail, Green plant response rating (0 to 100 scale) [16, 30]: 0 | Horseweed plant response rating (0-100) [17, 29]: 0 | Horseweed plant response rating (0 to 100 scale) [17, 30]: 10 | Kochia plant response rating (0-100) (kochia (Bassia scoparia) [18]; [29]): 40 | Kochia plant response rating (0 to 100 scale) (kochia (Bassia scoparia) [18]; [30]): 0 | Oat, Wild plant response rating (0-100) [19, 29]: 20 | Oat, Wild plant response rating (0 to 100 scale) [19, 30]: 0 | Pigweed, Palmer plant response rating (0-100) [20, 29]: 50 | Pigweed, Palmer plant response rating (0 to 100 scale) [20, 30]: 0 | Ragweed plant response rating (0-100) [21, 29]: 20 | Ragweed plant response rating (0 to 100 scale) [21, 30]: 0 | Ryegrass, Italian plant response rating (0-100) [22, 29]: 40 | Ryegrass, Italian plant response rating (0 to 100 scale) [22, 30]: 0 | Soybean plant response rating (0-100) (soybean (Glycine max) [23]; [29]): 30 | Soybean plant response rating (0 to 100 scale) (soybean (Glycine max) [23]; [30]): 0 | Wheat plant response rating (0-100) [24, 29]: 50 | Wheat plant response rating (0 to 100 scale) [24, 30]: 0 | Plant response rating, Barnyardgrass (0 to 100 scale, 0 is no effect and 100 is complete control) [25]: 0 | Plant response rating, Ducksalad (0 to 100 scale, 0 is no effect and 100 is complete control) [26]: 0 | Plant response rating, Rice (0 to 100 scale, 0 is no effect and 100 is complete control) (rice (Oryza sativa)): 0 | Plant response rating, Sedge, Umbrella (0 to 100 scale, 0 is no effect and 100 is complete control) [27]: 0
